One compound from publication PMC6353801, “Enhanced Anti-diabetic Effect of Berberine Combined With Timosaponin B2 in Goto-Kakizaki Rats, Associated With Increased Variety and Exposure of Effective Substances Through Intestinal Absorption” (Frontiers in Pharmacology, 2019) can be followed below.

This data set is described as follows: Transport in Caco-2 cells. Particulars: human. Type of data set: in vitro ADME, human. As to the method:
The culture medium was changed every other day for the first 7 days and then daily for the next 14 days. […] Prior to the transport experiments, the cell monolayers were washed three times with HBSS at 37°C. […] At the same time, the corresponding opposite side was filled with medium as the receiving chamber. After incubation for 30, 60, 90, and 120 min, 250-μl aliquots of the medium was taken from the receiving chamber at each time point, and prepared for analysis by HPLC–MS/MS. […] where (ΔQ/Δt) is the linear slope of the drug concentration in the receptor chamber over time, A represents the surface area of the membrane (1.12 cm^2), and C0 is the initial concentration of drug in the donor chamber. The efflux ratio (ERpermeability) for BL to AP and AP to BL transport was defined by the following equation: […] where Papp (BL–AP) and Papp (AP–BL) are the apparent permeability of drugs from the basolateral (BL) to apical (AP) and AP to BL sides of the monolayer, respectively.
In general terms: Caco-2 cells form a polarised layer with tight junctions and transporters.

Setting [1] is: Caco-2, BBR 10 μM in presence of TB-2 (5 μM), n = 3.

One may read the Papp A→B as how fast a substance crosses the layer from the apical side. Usually Papp B→A stands for how fast a substance crosses the layer from the basolateral side. Regarding `COc1ccc2cc3[n+](cc2c1OC)CCc1cc2c(cc1-3)OCO2` [BBR, berberine], for the setting “Caco-2, Caco-2, BBR 10 μM in presence of TB-2 (5 μM), read-out: ERpermeability (efflux ratio)”, the efflux ratio at 10 μM is 31.1. Also, under setting [1], the Papp A→B at 10 μM turned out to be 0.048 ± 0.014 ×10⁻⁶ cm/s and the basolateral-to-apical permeability (Papp B→A) at 10 μM is 1.5 ± 0.499 ×10⁻⁶ cm/s.
